Reference: US20200246441A1, “COMPOSITIONS AND METHODS FOR AUTOIMMUNE DISEASE TREATMENT” (AMRITA VISHWA VIDYAPEETHAM, priority 2016, published 2020)

Key:
[1] = test system: C57Bl/6 EAE mice; assay: Histological analysis of CNS tissue of C57Bl/6 EAE mice; format: in vivo, mouse; parameters: key to Axonal damage: 0 = no axonal pathology, 3 = severe axonal pathology; key to Demyelination score: 0 = no demyelination, 3 = severe demyelination; conditions: mean ± SEM
Method: (§1) For histological analysis of CNS tissue, the brain and spinal cord were dissected from mice then fixed in 10% formalin (Sigma) for 24-48 h. Tissue was then processed and embedded in paraffin wax. Serial sections (5 μm) were cut from paraffin-embedded tissues and stained with hematoxylin and eosin, luxol fast blue and Bielschowsky silver impregnation to assess inflammation, demyelination and axonal damage, respectively. Sections were scored blind for semi-quantitative histological analysis of inflammation as follows: 0, no inflammation: 1, cellular infiltrate only in the perivascular areas and meninges; 2, mild cellular infiltrate in parenchyma: 3, moderate cellular infiltrate in parenchyma; 4, severe cellular infiltrate in parenchyma. Demyelination and axonal pathology were assessed by pale staining and scored blind as follows: 0, no demyelination/axonal pathology: 1, mild demyelination/axonal pathology; 2, moderate demyelination-axonal pathology; 3, severe demyelination/axonal pathology.

[2] = test system: NOD/Lt EAE mice; assay: Histological analysis of CNS tissue of NOD/Lt EAE mice; format: in vivo, mouse; parameters: key to Axonal damage: 0 = no axonal pathology, 3 = severe axonal pathology; key to Demyelination score: 0 = no demyelination, 3 = severe demyelination; conditions: 200 nm silica peptide nanoparticles, mean ± SEM
Method: as §1

[3] = test system: C57Bl/6 EAE mice; assay: EAE induction and clinical scoring, MOG35-55-induced EAE in C57Bl/6 mice (chronic progressive model); format: in vivo, mouse; conditions: for Disease incidence / Mortality: fraction of total; for Cumulative score / Day disease onset / Maximum score / Score at termination: mean ± SEM
[4] = test system: NOD/Lt EAE mice; assay: EAE induction and clinical scoring, recombinant mouse MOG-induced EAE in NOD/Lt mice (relapsing remitting model); format: in vivo; conditions: 200 nm silica peptide nanoparticles, NOD/Lt; for Disease incidence / Mortality: fraction of total; for Cumulative score / Day disease onset / Maximum score / Score at termination: mean ± SEM
[5] = test system: MOG-specific T-cells (spleen cells from MOG T-cell receptor transgenic (2D2) mice); assay: Proliferation assay, 3H-thymidine incorporation; format: cell-based, mouse; conditions: free peptide or 500 nm silica NPs, up to 8 ug/ml
Method: Spleens were dissected from MOG T-cell receptor transgenic mice expressing the transgenic V3.2α/Vβ11 T-cell receptor specific for MOG35-55 peptide ([…]) in the context of 1-A^b. Single cell suspensions were prepared in complete RPMI medium containing 10% heat inactivated FBS, 2 mM L-glutamine, 100 U/ml penicillin, 100 μg/ml streptomycin, 50 μM 2-mercaptoethanol and 1 mM sodium pyruvate (Sigma). Following red blood cell lysis, splenocytes were seeded in triplicate in 96-well, flat bottom microtiter plates (Nunc) at a concentration of 2.5×10^5 cells per well. Splenocytes were cultured in medium alone or in the presence of increasing doses of MOG35-55 or nanoparticles. Cells were incubated at 37° C. for 72 hr with the addition of 1 μCi/well [3H]-thymidine (Perkin Elmer) for the last 18 hr of culture. Cells were harvested onto filter mats (Perkin Elmer) and incorporated radioactive nucleic acids counted using a Top Count NXT Scintillation Counter (Packard Biosciences).

[6] = test system: EAE; conditions: administered as free peptide; cited from earlier work
[7] = 200 nm silica peptide nanoparticles
[8] = 500 nm silica peptide nanoparticles
[9] = 500 nm silica peptide nanoparticles, i.v. day -7 and -1

Molecule	Axonal damage [1, 7]	Demyelination score [1, 7]	Inflammation score [1, 7]	Axonal damage [1, 8]	Demyelination score [1, 8]	Inflammation score [1, 8]	Axonal damage [2]	Demyelination score [2]	Inflammation score [2]	Disease incidence [3, 7]	Mortality [3, 7]	Cumulative score [3, 7]	Day disease onset [3, 7]	Maximum score [3, 7]	Score at termination [3, 7]	Disease incidence [3, 9]	Mortality [3, 8]	Cumulative score [3, 8]	Day disease onset [3, 8]	Maximum score [3, 8]	other results
ScrMOG37-52: control silica nanoparticles (500 nm or 200 nm) coated with scrambled MOG37-52 peptide RSVLVPSRWRHFYGVY [reference compound]	2.188 ± 0.2302	2.063 ± 0.2745	2.688 ± 0.3889	2.367 ± 0.2472	2.333 ± 0.2108	2.917 ± 0.2007	2.583 ± 0.2007	2.583 ± 0.2007	3.583 ± 0.2713	8/8	0/8	52.50 ± 4.621	13.38 ± 0.9051	3.313 ± 0.2825	2.313 ± 0.4525	6/6	0/6	52.5 ± 2.053	12.67 ± 0.4216	3.00 ± 0.0000	Score at termination [3, 8]: 1.833 ± 0.2108; Disease incidence [4]: 6/6; Mortality [4]: 0/6; Cumulative score [4]: 58.5 ± 2.772; Day disease onset [4]: 13.00 ± 0.4472; Maximum score [4]: 3.583 ± 0.3005; Score at termination [4]: 3.333 ± 0.3333; T-cell proliferation (proliferative response) [5]: not capable of stimulating T-cell proliferation
VGWYRSPβFSRVVHLYR [MOG 44βF]	–	–	–	–	–	–	–	–	–	–	–	–	–	–	–	–	–	–	–	–	dosage at which free peptide suppressed EAE [6]: 800 µg
Ova: control silica nanoparticles (500 nm or 200 nm) coated with ovalbumin (conjugate) GSIGAASMEFCFDVFKELKVHHANENIFYCPIAIMSALAMVYLGAKDSTRTQINKVVRFDKLPGFGDSIEAQCGTSVNVHSSLRDILNQITKPNDVYSFSLASRLYAEERYPILPEYLQCVKELYRGGLEPINFQTAADQARELINSWVESQTNGIIRNVLQPSSVDSQTAMVLVNAIVFKGLWEKAFKDEDTQAMPFRVTEQESKPVQMMYQIGLFRVASMASEKMKILELPFASGTMSMLVLLPDEVSGLEQLESIINFEKLTEWTSSNVMEERKIKVYLPRMKMEEKYNLTSVLMAMGITDVFSSSANLSGISSAESLKISQAVHAAHAEINEAGREVVGSAEAGVDAASVSEEFRADHPFLFCIKHIATNAVLFFGRCVSP	2.50 ± 0.2236	2.40 ± 0.3674	2.80 ± 0.4899	2.333 ± 0.1667	2.333 ± 0.1667	2.833 ± 0.1667	2.60 ± 0.1871	2.60 ± 0.1871	4.00 ± 0.00	5/5	0/5	62.00 ± 4.987	10.60 ± 0.9274	3.3 ± 0.2000	2.60 ± 0.3317	4/4	1/4	69.38 ± 11.77	10.75 ± 0.8539	3.625 ± 0.4732	Score at termination [3, 8]: 2.75 ± 0.7773; Disease incidence [4]: 6/6; Mortality [4]: 1/6; Cumulative score [4]: 46.75 ± 4.656; Day disease onset [4]: 14.17 ± 1.327; Maximum score [4]: 3.583 ± 0.3005; Score at termination [4]: 3.167 ± 0.4014; T-cell proliferation (proliferative response) [5]: not capable of stimulating T-cell proliferation
